US8993781B2, “Fluorescent boron-substituted dipyrromethenes and use thereof for diagnosis” (Centre National de la Recherche Scientifique, priority 2008, dated 2015)

Assays:
rat erythrocytes = experiment: Spectral index of the labeled amyloid peptide on rat erythrocytes preincubated with unlabeled beta-amyloid peptide; format: cell-based; conditions: rat erythrocytes incubated 2 hours at 37° C. with unlabeled peptide (10-1000 nmol·L^-1); FIG. 6
Description: A sample of rat blood (1 to 3 ml) is collected in a heparinized tube. The sample is diluted with Krebs medium then centrifuged three times discarding the buffer layer (“buffy coat”). The erythrocytes obtained are next incubated at 37° C. for 2 hours in the presence of the unlabeled beta-amyloid peptide 1-42 or the corresponding unlabeled reverse peptide (42-1) at various concentrations (10-1000 nmol·L^−1). After an additional washing, the cells are placed in a spectro-fluorimeter and a fluorescence spectrum (excitation 480 nm; emission 495-600 nm) of the base line is recorded before the addition of the labeled amyloid peptide (250 nmol·L^−1). A second fluorescence spectrum is recorded after 10 minutes of incubation in the presence of the labeled amyloid peptide.
The base line spectrum is subtracted from the fluorescence spectrum of the labeled beta-amyloid peptide. The spectrum obtained is broken down into 4 component Gaussian curves by deconvolution and non-linear regression. The ratio of the amplitude of the Gaussian centered around 510 nm to the amplitude of the Gaussian centered around 530 nm is calculated. Its value varies as a function of the concentration of unlabeled beta-amyloid peptide 1-42 in the presence of which the cells were incubated as illustrated in FIG. 6.

PC12 cells = experiment: Spectral index of the labeled amyloid peptide on PC12 cells preincubated with unlabeled beta-amyloid peptide; format: cell-based, rat; conditions: PC12 cells preincubated 12 hours with 100 or 250 nM unlabeled peptide, FIG. 5, 4 independent experiments in triplicate
Description: PC12 cells (derived from male rat medullo-adrenal gland tumor) are inoculated into glass-bottomed Petri dishes previously treated with collagen and polyornithine. They are cultured for 7 days in an atmosphere containing 5% of CO2 at 37° C. in RPMI 1640 medium containing glutamine and supplemented with 10% of horse serum, 5% of fetal calf serum, 50 U/mL of penicillin and 50 μg/mL of streptomycin. To induce the differentiation of the cells, 50 ng/mL of murine neurotrophic growth factor (NGF) 2.5S are added to the medium 24 hours after the inoculation.
The day before the measurement, unlabeled beta-amyloid peptide 1-42 of SEQ. ID. No.: 1 or the corresponding unlabeled reverse peptide (42-1) of SEQ ID No.: 2 is added at different concentrations lying between 10 and 1000 nmol·L^−1.
The following day, this preparation is washed 3 times with Krebs medium at ambient temperature and placed on an inverted microscope coupled with a spectro-fluorimeter. A fluorescence spectrum (excitation 480 nm; emission 495-600 nm) of the base line is recorded before the addition of the labeled amyloid peptide (250 nmol·L^−1). A second fluorescence spectrum is recorded after 10 minutes of incubation.
The base line spectrum is subtracted from the fluorescence spectrum of the labeled amyloid peptide. […] The ratio of the amplitude (measured graphically or else with the deconvolution software) of the Gaussian curves centered respectively at 525 nm and 540 nm defines a spectral index describing the distribution of the spectrum
The PC12 cells are preincubated for 12 hours in the presence of unlabeled beta-amyloid peptide 1-42 or 42-1 then rinsed before being placed under a microscope coupled to a spectrofluorimeter. A first spectrum (base line) is recorded.
Next, the labeled beta-amyloid peptide is added. A spectrum is recorded 10 minutes after the addition of the fluorescent compound.
The spectral index is the ratio between the amplitude of the first and that of the second Gaussian calculated by deconvolution (see FIG. 4).

Substance	value of the spectral index (ratio of Gaussian amplitudes around 510 nm and 530 nm) of the labeled amyloid peptide after preincubation with unlabeled peptide (rat erythrocytes)	change in the value of the spectral index of the labeled amyloid peptide induced by preincubation with unlabeled peptide (PC12 cells)	change in the value of the spectral index of the labeled amyloid peptide induced by preincubation with unlabeled peptide (PC12 cells; listed as β-amyloid peptide 42-1)
beta-amyloid peptide 1-42: unlabeled human beta-amyloid peptide 1-42 of SEQ ID No.: 1	increases as a function of the concentration	increases with the increase in concentration of peptide preincubated	–
beta-amyloid peptide 42-1: corresponding unlabeled reverse peptide (42-1) of SEQ ID No.: 2, inactive (AIVVGGVMLGIIAGKNSGVDEAFFVLKQHHVEYGSDHRFEAD; listed as Homo sapiens)	–	no significant effect	absence of change
